Data published in PMC7961996, “Small Immunomodulatory Molecules as Potential Therapeutics in Experimental Murine Models of Acute Lung Injury (ALI)/Acute Respiratory Distress Syndrome (ARDS)” (International Journal of Molecular Sciences, 2021).

What was measured:
CLP-induced sepsis mice [1] = experiment: CLP-induced lung and organ injury, histopathology scoring; assay type: in vivo, C57BL6/J mice
Method: (§1) For CLP-induced lung injury, CLP was performed as previously described by us. As antibiotics are the standard of care in sepsis patients, one dose of imipenem was given SC at 5 mg/kg 30 min after the procedure, followed by two doses of AVR-48 (10 mg/kg, IV) at 16 h and 24 h following the surgery, and sacrificed after 72 h. The sham mice (controls) had the abdominal cavity opened, the cecum was not perforated, and the peritoneum was stitched back.
H&E staining was performed on 5 µm paraffin lung tissue sections following standardized methods. Four to five random images per lung and 4–5 lungs per experimental group were characterized for lung injury score analysis.
Two different scoring systems were used for lung injury scoring, as the experiments were done at different times. The LPS-/hyperoxia-induced ALI scoring was done by DS, while the CLP-induced lung and other organs’ scoring was done by two additional independent investigators (PD and BA). For the hyperoxia- and LPS-induced lung injury, scoring was done on histological sections based on neutrophil infiltration and epithelial injury using the methods as described before with modifications. Four to five random images per lung and 4–5 lungs per experimental group were characterized for lung injury score analysis. We used a 0–4 scoring system in which 0 = no infiltration/injury, 1 = minimal infiltration/injury to 25% of the field, 2 = mild infiltration/injury […] of the field, 3 = moderate infiltration/injury to 75% of the field, and 4 = severe infiltration/diffuse injury. For the CLP-induced ALI, scoring was done following the methodology as reported earlier by a qualified pathologist (BA) in masked manner. Lungs were harvested from all the mice after the endpoint, and lung injury was scored based on the criteria of alveolar damage and vascular congestion and hemorrhage. As CLP-induced sepsis also results in damage to the rest of the viscera, which can contribute to ALI/ARDS, other organs were also scored as above, to determine the recovery potential of AVR-48 as a candidate drug. The following (cells) were taken into account while scoring the injury level followed by recovery after treatment in other vital organs: heart (myocardium), kidney (glomeruli, tubules), gut (mucosal cells, enterocytes), spleen (lymphoid follicles), liver (hepatocytes), brain (neuronal damage), testis (Seminiferous tubules), and lymph nodes. The final scores were calculated on the basis of total percentage of the damaged/recovered area and by the number of areas/High power field (HPF) as reported above.

CLP-induced sepsis mice [2] = experiment: CLP-induced sepsis survival study; assay type: in vivo, C57BL6/J mice; settings: AVR-48 10 mg/kg IV at 16 h and 24 h after CLP, imipenem 5 mg/kg SC at 30 min; 10 days; CLP alone 100% mortality within 72 h
Method: as §1
For the survival study of CLP-induced ALI, mice were injected with 2 doses of AVR-48 (IV) followed by 1 dose of imipenem (SC) as described in the CLP methodology, and allowed to survive for 10 days. Sterility was maintained throughout the procedure by operating the animals under a laminar hood. Following the procedure, the animals were returned back to the animal room for subsequent monitoring and follow up. The body temperature was recorded every 24h and feeding and social behavior was also observed. They were fed with semisolid food for 48h before resuming their regular chow diet. All mice were sacrificed after 10 days. (N=3 for sham and 5 for the rest of the groups). A CLP + imipenem group was not done in this study, as we have published this group […]
imipenem, better than CLP + imipenem alone. Histopathology of the vital organs was performed and scored as previously published (37, 38) and noted in the methods section of this paper.

[3] = AVR-48 10 mg/kg IV x2 after CLP
[4] = after CLP, Mean ± SEM, CLP alone 4.8± 0.2

CC(=O)N[C@H]1[C@H](Oc2ccc([N+](=O)[O-])cc2)O[C@H](CO)[C@@H](O)[C@@H]1O [AVR-48, N-((2S,3R,4R,5S,6R)-4,5-dihydroxy-6-(hydroxymethyl)-2-(4-nitrophenoxy)tetrahydro-2H-pyran-3-yl) acetamide]
3.4± 0.245: Injury score: Brain, Vascular Congestion & Hemorrhage (CLP-induced sepsis mice [1]; [4]) | Injury score: Heart, Myocardial Damage (CLP-induced sepsis mice [1]; [4]) | Injury score: Lymph Node, Follicular Damage (CLP-induced sepsis mice [1]; [4])
dramatic improvement: histopathological changes in other vital organs vs CLP-only group (CLP-induced sepsis mice [1]; [3])
3.4± 0.4: Injury score: Heart, Vascular Congestion & Hemorrhage (CLP-induced sepsis mice [1]; [4])
decreased inflammation and hemorrhage: appearance of the lung (histopathology) (CLP-induced sepsis mice [1]; [3])
significant recovery: lung injury score vs CLP group (CLP-induced sepsis mice [1]; AVR-48 10 mg/kg IV at 16 h and 24 h, sacrificed after 72 h, p < 0.001)
80%: survival (CLP-induced sepsis mice [2])
3.6± 0.245: Injury score: Brain, Neuronal Damage (CLP-induced sepsis mice [1]; [4]) | Injury score: Gut, MVD (CLP-induced sepsis mice [1]; [4]) | Injury score: Gut, Vascular Congestion & Hemorrhage (CLP-induced sepsis mice [1]; [4]) | Injury score: Kidney, Glomerular Damage (CLP-induced sepsis mice [1]; [4]) | Injury score: Kidney, Glomerular Injury (CLP-induced sepsis mice [1]; [4]) | Injury score: Kidney, Vascular Congestion & Hemorrhage (CLP-induced sepsis mice [1]; [4]) | Injury score: Liver, Hepatocyte Injury (CLP-induced sepsis mice [1]; [4]) | Injury score: Liver, Vascular Congestion & Hemorrhage (CLP-induced sepsis mice [1]; [4]) | Injury score: Lung, Alveolar Damage (CLP-induced sepsis mice [1]; [4]) | Injury score: Lung, Vascular Congestion and Hemorrhage (CLP-induced sepsis mice [1]; [4]) | Injury score: Spleen, Vascular Congestion & Hemorrhage (CLP-induced sepsis mice [1]; [4]) | Injury score: Testis, Tubular Damage (CLP-induced sepsis mice [1]; [4]) | Injury score: Testis, Vascular Congestion & Hemorrhage (CLP-induced sepsis mice [1]; [4])
